Laboratory results published in article PMC7905067, “Design and Immunological Evaluation of a Hybrid Peptide as a Potent TLR2 Agonist by Structure-Based Virtual Screening” (Frontiers in Cell and Developmental Biology, 2021).
“Also recorded” adds a separate entry of the source.

Assays:
[1] = system: serum TNF-α, IL-6, and IL-1β; assay: Serum cytokines by ELISA in CTX-treated mice; format: in vivo, BALB/c mice; details: CTX 80 mg/kg i.p. 3 days, peptide 10 mg/kg i.p. days 4-10, three biological replicates
Description: (§1) After a 7-day adaptation period, the mice were randomly divided into five groups (n = 12 in each group): (1) control group: physiological saline was injected intraperitoneally once daily; (2) cyclophosphamide (CTX) group: CTX (80 mg/kg mouse weight; Sigma-Aldrich, St. Louis, MO, United States) was injected intraperitoneally once daily for the first 3 days. […] From days 4 to 10, peptide (10 mg/kg mouse weight) was injected intraperitoneally into mice once daily. Twenty-four hours after the last drug administration, all the mice were weighed and then euthanized, and their tissues and blood were collected for further study. The body weight index was calculated according to the formula: […]
(§2) Serum was collected from blood and then assayed by ELISA kits according to the protocol supplied by the manufacturer (eBioscience, San Diego, United States) to determine the secretion of IgG, IgA, IgM, TNF-α, IL-6, and IL-1β.

TLR2 = assay: Surface plasmon resonance, immobilized TLR2; format: binding; details: Biacore X100, CM5 chip, PBS containing 0.05% Tween 20; 0, 1.25, 2.5, 5, and 10 mM
Description: Surface plasmon resonance (SPR) experiments were carried out using a Biacore X100 instrument (GE Healthcare, Pittsburgh, PA, United States) by standard amine coupling. TLR2 (R&D Systems, Minneapolis, MN, United States) was amine-coupled to a Biacore CM5 sensor chip (Bio-Rad). The peptide was diluted to varying concentrations (0, 1.25, 2.5, 5, and 10 mM) in running buffer (PBS containing 0.05% Tween 20) and run sequentially over immobilized TLR2. Binding curves were processed for the initial injection alignment and baseline, and a reference-subtracted sensorgram was globally fitted to the curves to describe a homogeneous 1:1 model. Data analysis was conducted using ProteOn manager software (version 2.0). Data from the protein surfaces were grouped together to fit the association kinetic rate constant (Ka) and the dissociation rate constant (Kd). The equilibrium dissociation constant (KD) for the peptide-TLR2 interaction was calculated as follows: […]

[2] = system: MHC class II, mouse PBMCs; assay: DC maturation: MHC-II expression by flow cytometry; format: in vivo, BALB/c mice; details: CTX 80 mg/kg i.p. 3 days; peptide 10 mg/kg i.p. days 4-10; three biological replicates
Description: as §1
Mouse peripheral blood mononuclear cells (PBMCs) were obtained from the different groups of mice through Ficoll density gradient centrifugation. The cells were resuspended in PBS with 5% FBS and incubated with 10% (v/v) normal goat serum for 15 min at 4°C. The cells were combined with FITC-conjugated antibodies specific for MHC class II (MHC-II; BD Pharmingen, United States). The surface expression of MHC-II was determined by flow cytometry.

TLR2, RAW264.7 cells [3] = assay: TLR2 blocking experiment (anti-mouse TLR2 C9A12, then LTPa); format: cell-based; details: LTPa 10 μg/mL, 24 h; with or without TLR2 mAb (C9A12) 1 h before; ELISA
Description: For TLR2 blocking experiments, RAW264.7 cells were cultured in 24-well plates overnight at 37°C. The mouse IgG2a isotype control antibody or anti-mouse TLR2 (C9A12; InvivoGen, San Diego, CA, United States) was added to the cell cultures 1 h before being treated with LTPa for 24 h at 37°C. Then, the levels of TNF-α, IL-6, and IL-1β in the culture supernatant were analyzed.

[4] = system: T lymphocyte subpopulations (CD4 +, CD8 +), mouse peripheral blood; assay: Peripheral blood T lymphocyte subpopulations by flow cytometry; format: in vivo, BALB/c mice; details: CTX 80 mg/kg i.p. 3 days; peptide 10 mg/kg i.p. days 4-10; three biological replicates
Description: as §1
Erythrocytes were aseptically obtained from the different groups of mouse peripheral blood and lysed with RBC lysis buffer. The remaining cells were washed with PBS and resuspended in PBS. The cells were combined with peridinin-chlorophyll-protein complex (PerCP)-conjugated anti-mouse CD3 +, allophycocyanin (APC)-conjugated anti-mouse CD4 +, and fluorescein isothiocyanate (FITC)-conjugated anti-mouse CD8 + (BD Pharmingen, United States) for 30 min at 4°C. The T lymphocyte subpopulations were analyzed by flow cytometry.

serum IgA, IgG, and IgM = assay: Serum immunoglobulins by ELISA in CTX-treated mice; format: in vivo, BALB/c mice; details: CTX 80 mg/kg i.p. 3 days, peptide 10 mg/kg i.p. days 4-10, three biological replicates
Description: as §1, §2

[5] = system: CTX-immunosuppressed murine model; assay: Body weight and immune organ indices in CTX-immunosuppressed mice; format: in vivo, BALB/c mice; details: CTX 80 mg/kg i.p. 3 days, peptide 10 mg/kg i.p. days 4-10, n = 12
Description: BALB/c mice (female, 6–8 weeks; Charles River, Beijing, China) used in this study were maintained in a specific-pathogen-free facility (55 ± 10% humidity and 22 ± 1°C) during the experiments. These experiments were conducted with approval from the Institutional Animal Care and Use Committee of China Agricultural University (certificate of the Beijing Laboratory Animal employee, ID: 18086).
After a 7-day adaptation period, the mice were randomly divided into five groups (n = 12 in each group): (1) control group: physiological saline was injected intraperitoneally once daily; (2) cyclophosphamide (CTX) group: CTX (80 mg/kg mouse weight; Sigma-Aldrich, St. Louis, MO, United States) was injected intraperitoneally once daily for the first 3 days. […] From days 4 to 10, peptide (10 mg/kg mouse weight) was injected intraperitoneally into mice once daily. Twenty-four hours after the last drug administration, all the mice were weighed and then euthanized, and their tissues and blood were collected for further study. The body weight index was calculated according to the formula:
Index(%)=finalbodyweight-initalbodyweight/initialbodyweight×100
The thymus and spleen indices were measured by the following formula:
Index(mg/g)=weightofthymusorspleen/bodyweight

TLR2, RAW264.7 cells [6] = assay: Cell surface TLR2 cluster formation by confocal laser-scanning microscopy; format: cell-based, mouse; details: LTPa 10 μg/mL, 1 h, 37°C; clusters = fluorescence > 40 arbitrary units; three independent experiments
Description: RAW264.7 cells were treated with or without 10 μg/mL LTPa for 1 h at 37°C. The cells were then incubated (30 min, on ice) with anti-mouse monoclonal antibody TLR2 or isotype control (IgG) (eBioscience) before washing with PBS. Then, the cells were stained with a FITC–conjugated anti-mouse IgG antibody for 30 min on ice (Jackson Laboratories). After washing with PBS and fixing with paraformaldehyde, the cell nuclei were stained with DAPI (1:500 dilution in PBS) (Sigma-Aldrich). The cells were then imaged with the Leica TCS SP5 confocal system (Leica Microsystems Ltd.). LAS AF software was used to process the images and quantify the fluorescence. In addition, to generate a fluorescence histogram profile, a line was drawn along the cell surface. Fluorescence intensities higher than 40 arbitrary units (isotype control staining) were considered clusters of TLR2 molecules.

RAW264.7 cells = assay: In vitro immunomodulatory activity: cytokine secretion by RAW264.7 cells (ELISA); format: cell-based, murine; details: 10 μg/mL, 12 h
Description: RAW264.7 cells were seeded at a density of 1.0 × 10^6 cell/mL and treated with (10 μg/mL) or without peptides in each well of a 6-well plate for 12 h at 37°C in a humidified incubator with 5% CO2. After treatment, TNF-α, IL-6 and IL-1β secretion in the cell supernatants was assessed using ELISA kits according to the manufacturer’s instructions.

[7] = 37°C, ELISA, three independent experiments

For “IGKEFKRIVQRIKDFLRNLVPRTERKDVT [LTPa, hybrid peptide combining LL-37a and TP5]”, the “serum IL-1β level” value [1] was “higher than those in the TP5- or LL-37-treated groups; also recorded: efficiently reversed the declines”, the “serum IL-6 level” value [1] was “higher than those in the TP5- or LL-37-treated groups; also recorded: efficiently reversed the declines” and the “serum TNF-α level” value [1] was “higher than those in the TP5- or LL-37-treated groups; also recorded: efficiently reversed the declines”. For the same sequence, the “binding to TLR2 (SPR)” value (TLR2) was “could effectively bind to the TLR2”, the “expression of MHC-II” value [2] was “increased by LTPa treatment; also recorded: significantly higher than that in the LL-37-treated and TP5-treated groups” and the “TNF-α, IL-6, and IL-1β production” value (TLR2, RAW264.7 cells [3]) was “significantly caused increase levels of TNF-α, IL-6, and IL-1β”. For the same sequence, the “proportions of CD4 + and CD8 + T lymphocytes” value [4] was “significantly higher than that in the LL-37-treated group and similar to that in the TP5-treated group”, the “serum IgA level” value (serum IgA, IgG, and IgM) was “significantly higher total serum IgA, IgG, and IgM levels than mice in the TP5- or LL-37-treated groups” and the “serum IgG level” value (serum IgA, IgG, and IgM) was “significantly higher total serum IgA, IgG, and IgM levels than mice in the TP5- or LL-37-treated groups”. For the same sequence, the “serum IgM level” value (serum IgA, IgG, and IgM) was “significantly higher total serum IgA, IgG, and IgM levels than mice in the TP5- or LL-37-treated groups”, the spleen index [5] was “significantly higher than those in the LL-37-treated and TP5-treated groups” and the thymus index [5] was “significantly higher than those in the LL-37-treated and TP5-treated groups”. The bodyweight ([5]; CTX group vs control) was “improved bodyweight rapidly; also recorded: significantly higher than that in the parental peptide (LL-37 and TP5)-treated groups”, the “TLR2 clusters per micrometer on the cell surface” value (TLR2, RAW264.7 cells [6]) was “significantly increased the number of major TLR2 clusters per micrometer on the cell surface” and the IL-1β secretion (RAW264.7 cells; [7]) was “remarkable increases”. The IL-6 secretion (RAW264.7 cells; [7]) was “remarkable increases”, the TNF-α secretion (RAW264.7 cells; [7]) was “remarkable increases” and the “secretion of TNF-α, IL-6, and IL-1β (comparison between peptides)” value (RAW264.7 cells; vs the other peptides tested) was “significantly increased the secretion of TNF-α, IL-6, and IL-1β in comparison with the other peptides tested”.
